Source: US10093678B2, “Azaspiro derivatives as TRPM8 antagonists” (RaQualia Pharma Inc., priority 2014, dated 2018)

Target: T1, human TRPM8 (Homo sapiens, UniProt Q7Z2W7)
T1 construct: expressed in transfected cells; host or cells: HEK293
Test: Menthol-induced Ca2+ influx in HEK293 cells stably expressing human TRPM8
Format: cell-based
Details: 30 microM menthol-induced Ca2+ influx, read-out: IC50 against TRPM8
Method in brief: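 HEK293 cells stably expressing human TRPM8 were loaded with Fluo4-AM for 1 h at room temperature, preincubated 5 min with compound, then challenged with 30 microM menthol. Calcium rise was read by FDSS imaging. IC50 came from 11-point curves using duplicate-well means.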

T1 sequence (Q7Z2W7 whole entry): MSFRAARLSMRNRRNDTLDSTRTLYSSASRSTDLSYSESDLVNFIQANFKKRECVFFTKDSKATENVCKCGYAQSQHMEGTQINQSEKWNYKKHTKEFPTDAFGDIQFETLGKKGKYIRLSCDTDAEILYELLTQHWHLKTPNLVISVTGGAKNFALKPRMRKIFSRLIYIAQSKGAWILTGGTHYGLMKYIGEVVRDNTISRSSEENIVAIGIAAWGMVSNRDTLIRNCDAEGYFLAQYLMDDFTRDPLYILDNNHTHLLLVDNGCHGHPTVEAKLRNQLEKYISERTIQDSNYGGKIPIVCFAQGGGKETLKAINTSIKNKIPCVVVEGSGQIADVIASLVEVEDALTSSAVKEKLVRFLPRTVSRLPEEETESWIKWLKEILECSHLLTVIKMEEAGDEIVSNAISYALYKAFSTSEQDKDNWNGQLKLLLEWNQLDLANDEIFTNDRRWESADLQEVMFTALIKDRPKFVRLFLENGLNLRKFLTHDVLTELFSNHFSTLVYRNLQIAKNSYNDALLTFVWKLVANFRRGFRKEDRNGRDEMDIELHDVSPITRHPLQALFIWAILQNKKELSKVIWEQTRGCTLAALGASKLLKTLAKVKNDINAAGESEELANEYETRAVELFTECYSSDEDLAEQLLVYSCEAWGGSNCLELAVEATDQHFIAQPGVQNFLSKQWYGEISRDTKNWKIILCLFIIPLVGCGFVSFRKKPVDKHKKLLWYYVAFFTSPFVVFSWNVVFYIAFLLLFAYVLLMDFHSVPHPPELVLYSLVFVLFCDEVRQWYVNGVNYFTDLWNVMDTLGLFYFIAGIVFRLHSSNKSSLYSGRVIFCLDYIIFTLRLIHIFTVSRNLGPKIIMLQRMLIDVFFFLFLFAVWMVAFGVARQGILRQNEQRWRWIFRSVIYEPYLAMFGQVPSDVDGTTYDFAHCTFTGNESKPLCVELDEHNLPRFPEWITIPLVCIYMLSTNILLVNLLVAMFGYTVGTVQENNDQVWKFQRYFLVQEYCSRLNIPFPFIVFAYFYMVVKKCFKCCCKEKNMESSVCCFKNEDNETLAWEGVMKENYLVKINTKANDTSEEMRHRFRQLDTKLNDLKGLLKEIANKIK

Row | IC50 [µM] | SMILES
1 | < 0.5 | N#Cc1ncccc1-c1ccc(C(=O)CN2CC3(CCC(F)(F)CC3)OC2=O)cc1 [Example 7-20]
2 | < 0.1 | N#Cc1ccccc1-c1ccc(C(=O)CN2C(=O)NC3(CCC(F)(F)CC3)C2=O)cc1Cl [Example 13-25]
3 | < 0.1 | O=C(CN1C(=O)NC2(CCC(F)(F)CC2)C1=O)c1ccc(-c2cccc3cnccc23)cc1 [Example 13-41]
4 | < 0.5 | Cc1cccc(-n2c(C)nc(C(=O)CN3CC4(CCC(F)(F)CC4)OC3=O)c2C)c1 [Example 2-17]
5 | < 0.1 | Cc1cc(C(=O)CN2C(=O)NC3(CCC(F)(F)CC3)C2=O)sc1-c1cccc(C#N)c1 [Example 14-10]
6 | < 0.1 | O=C(CN1CC2(CCC(F)(F)CC2)OC1=O)c1ccc(-n2cnc3ccccc32)cc1 [Example 22-4]
7 | < 0.1 | O=C(CN1C(=O)NC2(CCC(F)(F)CC2)C1=O)c1ccc(-c2ncccc2CO)cc1 [Example 6-36]
8 | < 0.5 | O=C(CN1C(=O)NC2(CCC(F)(F)CC2)C1=O)c1ccc(-c2nccn3ccnc23)cc1 [Example 6-85]
9 | < 0.5 | O=C(CN1C(=O)NC2(CCC(F)(F)CC2)C1=O)c1ccc(Oc2cccnc2)cc1F [Example 21-16]
10 | < 0.5 | Cc1ccnnc1-c1ccc(C(=O)CN2C(=O)NC3(CCCCC3)C2=O)cc1 [Example 7-23]
11 | < 0.1 | Cc1cc(C(=O)CN2C(=O)NC3(CCC(F)(F)CC3)C2=O)c(C)n1-c1cccnc1 [Example 3-9]
12 | < 0.1 | Cc1nc(C(=O)CN2C(=O)NC3(CCCCC3)C2=O)c(C)n1-c1cccc(Cl)c1 [Example 2-15]
13 | < 0.1 | Cc1ccncc1-c1ncc(C(=O)CN2C(=O)NC3(CCC(F)(F)CC3)C2=O)cc1Cl [Example 5-25]
14 | < 0.1 | Cc1cc(C(=O)CN2C(=O)NC3(CCCCC3)C2=O)sc1-c1ccccc1CO [Example 14-2]
15 | < 0.5 | Cc1cc(C(=O)CN2C(=O)NC3(CCCCC3)C2=O)c(C)n1-c1cccc(OCC2CC2)n1 [Example 3-28, 3-(2-(1-(6-(cyclopropylmethoxy)pyridin-2-yl)-2,5-dimethyl-1H-pyrrol-3-yl)-2-oxoethyl)-1,3-diazaspiro[4.5]decane-2,4-dione]
16 | < 0.1 | Cc1cc(C)nc(-n2c(C)cc(C(=O)CN3C(=O)NC4(CCC(F)(F)CC4)C3=O)c2C)c1 [Example 3-16]
17 | < 0.1 | O=C(CN1C(=O)NC2(CCC(F)(F)CC2)C1=O)c1ccc(Oc2ccccn2)cc1 [Example 5-17]
18 | < 0.1 | Cc1nc(C(=O)CN2C(=O)NC3(CCC(F)(F)CC3)C2=O)sc1-c1ccccc1CO [Example 18-4]
19 | < 0.1 | Cc1cc(C(=O)CN2C(=O)NC3(CCC(F)(F)CC3)C2=O)n(C)c1-c1ccccc1F [Example 16-13]
20 | < 0.1 | Cc1cc(C(=O)CN2C(=O)NC3(CCC(F)(F)CC3)C2=O)c(C)n1-c1cccc(Cl)c1 [Example 3-7]
21 | < 0.1 | Cc1ccsc1-c1ccc(C(=O)CN2C(=O)NC3(CCCCC3)C2=O)cc1 [Example 7-3]
22 | < 0.1 | O=C(CN1C(=O)NC2(CCC(F)(F)CC2)C1=O)c1ccc(-c2ncccc2F)cc1 [Example 6-27]
23 | < 0.1 | Cc1nc(C(=O)CN2C(=O)NC3(CCC(F)(F)CC3)C2=O)c(C)n1-c1cccc(Cl)c1 [Example 2-14]
24 | < 0.1 | Cc1ccncc1-c1ccc(C(=O)CN2C(=O)NC3(CCC(F)(F)CC3)C2=O)n1C [Example 16-2]
25 | < 0.5 | O=C1CCc2c(cccc2-c2ccc(C(=O)CN3C(=O)NC4(CCC(F)(F)CC4)C3=O)cc2)N1 [Example 6-52]
26 | < 0.1 | Cc1ccccc1-c1ccc(C(=O)CN2C(=O)NC3(CCCCC3)C2=O)cc1 [Example 13-4]

Row | IC50 [µM] | SMILES
27 | < 0.01 | COc1ccccc1-c1ccc(C(=O)CN2C(=O)NC3(CCCCC3)C2=O)cn1 [Example 9-3]
28 | < 0.1 | Cc1nc(C(=O)CN2C(=O)NC3(CCC(F)(F)CC3)C2=O)n(C)c1-c1ccccc1 [Example 17-7]
29 | < 0.5 | O=C(CN1C(=O)NC2(CCC(F)(F)CC2)C1=O)c1ccc(-n2cnc3cncnc32)cc1 [Example 19-34]
30 | < 0.1 | O=C(CN1C(=O)NC2(CCC(F)(F)CC2)C1=O)c1ccc(N2C(=O)COc3ccccc32)nc1 [Example 19-13]
31 | < 0.1 | Cc1nc(C(=O)CN2C(=O)NC3(CCC(F)(F)CC3)C2=O)n(C)c1-c1cccc2ccncc12 [Example 17-9]
32 | < 0.1 | Cc1ccnnc1-c1ccc(C(=O)CN2C(=O)NC3(CCC(F)(F)CC3)C2=O)cc1 [Example 6-14]
33 | < 0.1 | Cc1nc(C(=O)CN2C(=O)NC3(CCC(F)(F)CC3)C2=O)n(C)c1-c1cccc(C#N)c1 [Example 17-8]
34 | < 0.1 | Cc1cc(C(=O)CN2C(=O)NC3(CCCCC3)C2=O)cnc1-c1ccccc1C#N [Example 11-1]
35 | < 0.1 | O=C(CN1C(=O)NC2(CCC(F)(F)CC2)C1=O)c1ccc(-c2n[nH]c3ccccc23)cc1 [Example 6-32]
36 | < 0.1 | O=C(CN1C(=O)NC2(CCC(F)(F)CC2)C1=O)c1ccc(-n2c(C(F)(F)F)nc3cccnc32)cc1 [Example 24-6, 8,8-difluoro-3-(2-oxo-2-(4-(2-(trifluoromethyl)-3H-imidazo[4,5-b]pyridin-3-yl)phenyl)ethyl)-1,3-diazaspiro[4.5]decane-2,4-dione]
37 | < 0.1 | Cc1cc(C(=O)CN2C(=O)NC3(CCC(F)(F)CC3)C2=O)sc1-c1ccccc1Cl [Example 14-14]
38 | < 0.1 | Cc1cc(C(=O)CN2C(=O)NC3(CCC(F)(F)CC3)C2=O)n(C)c1-c1ccccc1 [Example 4-3]
39 | < 0.01 | Cc1ccncc1-c1sc(C(=O)CN2C(=O)NC3(CCC(F)(F)CC3)C2=O)nc1C [Example 18-2]
40 | < 0.1 | Cc1cncc(-n2c(C)cc(C(=O)CN3C(=O)NC4(CCCCC4)C3=O)c2C)n1 [Example 3-3]
41 | < 0.1 | COCc1ccccc1-c1ccc(C(=O)CN2C(=O)NC3(CCC(F)(F)CC3)C2=O)cc1 [Example 6-114]
42 | < 0.1 | O=C(CN1C(=O)NC2(CCC(F)(F)CC2)C1=O)c1ccc(-c2cnccc2CO)cc1 [Example 6-10]
43 | < 0.1 | COc1cccc(-c2c(C)cc(C(=O)CN3C(=O)NC4(CCC(F)(F)CC4)C3=O)n2C)c1 [Example 16-14]
44 | < 0.1 | O=C(CN1C(=O)NC2(CCC(F)(F)CC2)C1=O)c1ccc(-c2cccc3[nH]ncc23)cc1 [Example 13-40]
45 | < 0.1 | N#Cc1nccnc1-c1ccc(C(=O)CN2C(=O)NC3(CCC(F)(F)CC3)C2=O)c(F)c1 [Example 8-8]
46 | < 0.1 | Cc1nc(C(=O)CN2C(=O)NC3(CCC(F)(F)CC3)C2=O)sc1-c1cc(F)cc(F)c1 [Example 18-11]
47 | < 0.1 | Cc1cc(C(=O)CN2C(=O)NC3(CCCCC3)C2=O)ccc1-c1ccccc1 [Example 13-5]
48 | < 0.1 | O=C(CN1C(=O)NC2(CCC(F)(F)CC2)C1=O)c1ccc(Oc2ncccc2Cl)cc1 [Example 21-2, 3-(2-(4-((3-chloropyridin-2-yl)oxy)phenyl)-2-oxoethyl)-8,8-difluoro-1,3-diazaspiro[4.5]decane-2,4-dione]
49 | < 0.1 | O=C(CN1C(=O)NC2(CCC(F)(F)CC2)C1=O)c1ccc(-c2cnccc2CO)c(F)c1 [Example 8-2]
50 | < 0.5 | Cc1ncccc1-c1c(C)nc(C(=O)CN2C(=O)NC3(CCC(F)(F)CC3)C2=O)n1C [Example 17-13]
51 | < 0.1 | CCOc1ncccc1-c1ccc(C(=O)CN2C(=O)NC3(CCC(F)(F)CC3)C2=O)cc1 [Example 6-39]
52 | < 0.1 | O=C(CN1C(=O)NC2(CCCCC2)C1=O)c1ccc(-c2cnccc2CO)cc1 [Example 7-9]
